Patent US7396837B2, “Antitumoral analogs of lamellarins” (Pharma Mar, S.A.U., priority 2002, dated 2008)
Like-named read-outs stand apart in the source and are kept apart here.

Experiments:
PANC-1 = assay: SRB colorimetric cell growth inhibition assay, PANC-1; format: cell-based; conditions: Homo sapiens, PANC-1, PANC-1; for GI50: GI=growth inhibition, read-out: GI50 PANC-1; for CC50: read-out: LC50 PANC-1; for IC (TGI): read-out: TGI PANC-1
Summary of the method: (§1)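 Read-out: sulforhodamine B colorimetry of surviving cell mass after continued exposure of human tumour lines to sample. Values are means ± SD of three wells, expressed as GI, TGI or LC.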

LoVo = assay: SRB colorimetric cell growth inhibition assay, LoVo; format: cell-based; conditions: Homo sapiens, LoVo; for GI50: GI=growth inhibition, read-out: GI50 LOVO; for CC50: read-out: LC50 LOVO; for IC (TGI): read-out: TGI LOVO
Summary of the method: as §1

IGROV-ET = assay: SRB colorimetric cell growth inhibition assay, IGROV-ET (ET-743 resistant); format: cell-based; conditions: Homo sapiens, IGROV-ET; for GI50: GI=growth inhibition, read-out: GI50 IGROV-ET; for CC50: LC=cell killing (cytotoxic effect), read-out: LC50 IGROV-ET; for IC (TGI): TGI=total growth inhibition (cytostatic effect), read-out: TGI IGROV-ET
Summary of the method: as §1

A-549 = assay: SRB colorimetric cell growth inhibition assay, A-549; format: cell-based; conditions: Homo sapiens, A549, A-549; for GI50: GI=growth inhibition, read-out: GI50 A-549; for CC50: read-out: LC50 A-549; for IC (TGI): read-out: TGI A-549
Summary of the method: as §1

SK-BR-3 = assay: SRB colorimetric cell growth inhibition assay, SK-BR-3; format: cell-based; conditions: Homo sapiens, SK-BR-3, SK-BR-3; for GI50: GI=growth inhibition, read-out: GI50 SK-BR-3; for CC50: LC=cell killing (cytotoxic effect), read-out: LC50 SK-BR-3; for IC (TGI): TGI=total growth inhibition (cytostatic effect), read-out: TGI SK-BR-3
Summary of the method: as §1

human topoisomerase I = target: T1, human topoisomerase I (Homo sapiens, UniProt P11387); assay: Topoisomerase I DNA relaxation assay (supercoiled plasmid DNA); format: biochemical; conditions: supercoiled plasmid DNA, each compound tested at 1 μM, agarose gel with ethidium bromide
T1 sequence (P11387 1-765): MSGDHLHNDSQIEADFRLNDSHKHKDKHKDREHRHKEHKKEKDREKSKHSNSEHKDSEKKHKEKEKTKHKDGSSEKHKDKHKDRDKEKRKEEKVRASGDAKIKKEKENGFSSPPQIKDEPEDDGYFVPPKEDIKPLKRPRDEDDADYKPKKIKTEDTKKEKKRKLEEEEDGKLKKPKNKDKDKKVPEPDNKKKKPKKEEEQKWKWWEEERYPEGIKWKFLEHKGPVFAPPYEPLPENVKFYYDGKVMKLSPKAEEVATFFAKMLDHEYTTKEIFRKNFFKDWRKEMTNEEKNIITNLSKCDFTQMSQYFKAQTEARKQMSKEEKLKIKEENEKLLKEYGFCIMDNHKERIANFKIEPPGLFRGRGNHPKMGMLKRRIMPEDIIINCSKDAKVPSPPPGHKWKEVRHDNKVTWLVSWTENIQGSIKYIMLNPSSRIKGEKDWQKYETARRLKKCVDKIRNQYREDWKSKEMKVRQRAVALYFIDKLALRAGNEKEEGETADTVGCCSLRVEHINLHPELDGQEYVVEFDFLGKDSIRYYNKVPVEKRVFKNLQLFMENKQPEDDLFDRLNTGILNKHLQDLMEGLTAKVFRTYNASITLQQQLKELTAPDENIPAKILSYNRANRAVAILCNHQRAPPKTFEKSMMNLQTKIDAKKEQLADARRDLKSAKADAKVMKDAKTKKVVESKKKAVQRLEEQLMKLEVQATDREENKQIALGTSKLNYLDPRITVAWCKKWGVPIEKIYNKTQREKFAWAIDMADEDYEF
Summary of the method: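 Test compounds (1 μM each) were present during topoisomerase I relaxation of supercoiled plasmid DNA. Relaxation was assessed on ethidium bromide-stained agarose gels.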

LoVo-Dox = assay: SRB colorimetric cell growth inhibition assay, LoVo-Dox (MDR); format: cell-based; conditions: Homo sapiens, LOVO-DOX; for GI50: GI=growth inhibition, read-out: GI50 LOVO-DOX; for CC50: read-out: LC50 LOVO-DOX; for IC (TGI): read-out: TGI LOVO-DOX
Summary of the method: as §1

K-562 = assay: SRB colorimetric cell growth inhibition assay, K-562; format: cell-based; conditions: Homo sapiens, K562, K-562; for GI50: GI=growth inhibition, read-out: GI50 K-562; for CC50: read-out: LC50 K-562; for IC (TGI): read-out: TGI K-562
Summary of the method: as §1

IGROV = assay: SRB colorimetric cell growth inhibition assay, IGROV; format: cell-based; conditions: Homo sapiens, IGROV; for GI50: GI=growth inhibition, read-out: GI50 IGROV; for CC50: LC=cell killing (cytotoxic effect), read-out: LC50 IGROV; for IC (TGI): TGI=total growth inhibition (cytostatic effect), read-out: TGI IGROV
Summary of the method: as §1

LNCaP = assay: SRB colorimetric cell growth inhibition assay, LNCaP; format: cell-based; conditions: Homo sapiens, LNCaP, LN-caP; for GI50: GI=growth inhibition, read-out: GI50 LN-caP; for CC50: LC=cell killing (cytotoxic effect), read-out: LC50 LN-caP; for IC (TGI): TGI=total growth inhibition (cytostatic effect), read-out: TGI LN-caP
Summary of the method: as §1

DU-145 = assay: SRB colorimetric cell growth inhibition assay, DU-145; format: cell-based; conditions: Homo sapiens, DU-145, DU-145; for GI50: GI=growth inhibition, read-out: GI50 DU-145; for CC50: LC=cell killing (cytotoxic effect), read-out: LC50 DU-145; for IC (TGI): TGI=total growth inhibition (cytostatic effect), read-out: TGI DU-145
Summary of the method: as §1

HT-29 = assay: SRB colorimetric cell growth inhibition assay, HT-29; format: cell-based; conditions: Homo sapiens, HT-29, HT-29; for GI50: GI=growth inhibition, read-out: GI50 HT-29; for CC50: read-out: LC50 HT-29; for IC (TGI): read-out: TGI HT-29
Summary of the method: as §1

SK-MEL-28 = assay: SRB colorimetric cell growth inhibition assay, SK-MEL-28; format: cell-based; conditions: Homo sapiens, SK-MEL-28, MEL-28; for GI50: GI=growth inhibition, read-out: GI50 MEL-28; for CC50: LC=cell killing (cytotoxic effect), read-out: LC50 MEL-28; for IC (TGI): TGI=total growth inhibition (cytostatic effect), read-out: TGI MEL-28
Summary of the method: as §1

[1] = LC=cell killing (cytotoxic effect)
[2] = TGI=total growth inhibition (cytostatic effect)
[3] = cell killing (cytotoxic effect)
[4] = total growth inhibition (cytostatic effect)

Compound	GI50 (PANC-1) [µM]	GI50 (LoVo) [µM]	GI50 (IGROV-ET) [µM]	CC50 (IGROV-ET) [µM]	IC (TGI) (IGROV-ET) [µM]	GI50 (A-549) [µM]	GI50 (SK-BR-3) [µM]	CC50 (SK-BR-3) [µM]	IC (TGI) (SK-BR-3) [µM]	stimulation of DNA cleavage by topoisomerase I / inhibition of topoisomerase I (nicked DNA band) in DNA relaxation assay (human topoisomerase I)	GI50 (LoVo-Dox) [µM]	GI50 (K-562) [µM]	GI50 (IGROV) [µM]	CC50 (IGROV) [µM]	IC (TGI) (IGROV) [µM]	GI50 (LNCaP) [µM]	CC50 (LNCaP) [µM]	IC (TGI) (LNCaP) [µM]	GI50 (DU-145) [µM]	CC50 (DU-145) [µM]	other results
COc1cc(-c2c3c4cc(OC)c(OC(=O)[C@@H](N)CC(C)C)cc4oc(=O)c3n3ccc4cc(OC(=O)[C@@H](N)CC(C)C)c(OC)cc4c23)ccc1OC(=O)[C@@H](N)CC(C)C [Compound 39]	0.164	0.321	0.055	8.47	0.369	0.0464	0.0545	8.47	1.46	marked inhibition of topoisomerase I	0.323	0.0359	0.0341	8.47	0.931	0.0279	8.47	0.252	0.018	8.47	CC50 (PANC-1; [1]): 8.47 µM; IC (TGI) (PANC-1; [2]): 8.47 µM; CC50 (LoVo; [1]): 8.47 µM; IC (TGI) (LoVo; [2]): 2.53 µM; CC50 (A-549; [1]): 8.47 µM; IC (TGI) (A-549; [2]): 0.855 µM; CC50 (LoVo-Dox; [1]): 8.47 µM; IC (TGI) (LoVo-Dox; [2]): 1.81 µM; CC50 (K-562; [1]): 8.47 µM; IC (TGI) (K-562; [2]): 1.08 µM; IC (TGI) (DU-145): 0.142 µM; GI50 (HT-29): 3.04 µM; CC50 (HT-29; [1]): 8.47 µM; IC (TGI) (HT-29; [2]): 8.47 µM; GI50 (SK-MEL-28): 0.0339 µM; CC50 (SK-MEL-28): 8.47 µM; IC (TGI) (SK-MEL-28): 0.295 µM
COc1cc(-c2c3c4cc(OC)c(OC(=O)[C@H](C)N)cc4oc(=O)c3n3ccc4cc(OC(=O)[C@H](C)N)c(OC)cc4c23)ccc1OC(=O)[C@H](C)N [Compound 40]	0.254	0.223	0.0852	9.48	0.557	0.0316	0.816	9.48	3.25	marked inhibition of topoisomerase I	0.47	0.0582	0.0449	5.04	0.391	0.13	4.38	0.447	0.0162	9.48	CC50 (PANC-1; [1]): 9.48 µM; IC (TGI) (PANC-1; [2]): 3.27 µM; CC50 (LoVo; [1]): 6.41 µM; IC (TGI) (LoVo; [2]): 0.884 µM; CC50 (A-549; [1]): 9.48 µM; IC (TGI) (A-549; [2]): 0.27 µM; CC50 (LoVo-Dox; [1]): 9.48 µM; IC (TGI) (LoVo-Dox; [2]): 3.35 µM; CC50 (K-562; [1]): 4.61 µM; IC (TGI) (K-562; [2]): 0.986 µM; IC (TGI) (DU-145): 0.094 µM; GI50 (HT-29): 3.57 µM; CC50 (HT-29; [1]): 9.48 µM; IC (TGI) (HT-29; [2]): 9.48 µM; GI50 (SK-MEL-28): 0.0412 µM; CC50 (SK-MEL-28): 9.48 µM; IC (TGI) (SK-MEL-28): 0.595 µM
COc1cc(-c2c3n(c4c(=O)oc5cc(O)c(OC)cc5c24)CCc2cc(O)c(OC)cc2-3)ccc1O [Compound 109]	5.7	0.917	9.67	19.9	19.9	5.94	3.45	19	8.1	inactive	5.64	0.425	1.8	19.9	6.08	1.16	19.9	1.99	2.99	19.9	CC50 (PANC-1; [3]): 19.9 µM; IC (TGI) (PANC-1; [4]): 19.9 µM; CC50 (LoVo; [3]): 19.9 µM; IC (TGI) (LoVo; [4]): 4.07 µM; CC50 (A-549; [3]): 19.9 µM; IC (TGI) (A-549; [4]): 14.1 µM; CC50 (LoVo-Dox; [3]): 19.9 µM; IC (TGI) (LoVo-Dox; [4]): 13.5 µM; CC50 (K-562; [3]): 19.9 µM; IC (TGI) (K-562; [4]): 19.9 µM; IC (TGI) (DU-145): 15.4 µM; GI50 (HT-29): 4.81 µM; CC50 (HT-29; [3]): 19.9 µM; IC (TGI) (HT-29; [4]): 19.9 µM; GI50 (SK-MEL-28): 0.885 µM; CC50 (SK-MEL-28): 10.8 µM; IC (TGI) (SK-MEL-28): 2.57 µM
